{
  "source": "patent US20170283378A1",
  "about": "“INDOLE DERIVATIVES FOR THE PREVENTION AND/OR TREATMENT OF DIABETES AND ASSOCIATED METABOLIC DISORDERS” (Consejo Superior de Investigaciones Cientificas (CSIC), priority 2014, published 2017)",
  "system": "AMPK",
  "experiment": "AMPK activation measurements in cultured cells (Western Blot of pThr172 AMPK alpha and pSer79 ACC)",
  "assay_type": "cell-based, human",
  "settings": "for activation of AMPK (anti-phosphoThr172 AMPK alpha, Western Blot) / phosphorylation of ACC substrate (anti-phosphoSer79ACC, Western Blot): HEK293 cells treated for 1 hour; for endogenous levels of AMPKα pT172: HEK293 cells, increasing doses, phenformin 5 mM as activation control; for activation of the AMPK complex: at the indicated doses (figures), cultured HEK293 cells",
  "description": "AMPK activation measurements in cultured cells by means of compounds 7 and 16.\nCell line and treatments. The cell line that was used in the treatments with the different assayed reagents was HEK293T (human embryonic kidney cells). Cells were grown in DMEM (Dulbecco's Modified Eagle's Medium) with 25 mM of glucose supplemented with 10% of inactivated fetal bovine serum, 2 mM glutamine, 100 units/ml of penicillin and 100 μg/ml of streptomycin, in a humid atmosphere at 37° C. with 5% of CO2. Cells were grown on 60 mm (p. 60) plates to obtain 70-80% of confluence. Cells were washed in Krebs Ringer buffer (KRB: NaCI […], CaCl2 […], KH2PO4 0.5 mM, KCl 3 mM, NaHCO3 2.5 mM, MgSO40.5 mM, HEPES 10 mM pH 7.4, 95:5 O2/CO2) tempered at 37° C. and subsequently treated for 1 hour at 37° C. in a culture oven, adding the adequate quantities of 7 and 16 (5 mM stock in DMSO) dissolved in KRB/25 mM glucose to reach the final concentrations indicated in the figures. Phenformin 5 mM was used as an activation control.\nPreparation of HEK293T cell extracts. After the corresponding treatments, the supernatant was removed and cells were quickly-frozen in liquid N2. The plates were processed one by one and kept in ice , firstly adding the cold lysis buffer. The composition of the buffer was as follows: Tris 10 mM pH 7.4, EDTA 15 mM pH 8.0, NaF 50 mM, Na4P2O7 15 mM, sacarose 0.6 M, 2-Mercaptoethanol 15 mM, a mixture of protease inhibitors without EDTA (Roche) and 1 mM PMSF. Cells were collected in a lysis buffer with the help of a scraper and were lysed, passing each sample through 24 G×⅝″ syringes four times. A small amount was reserved to measure the quantity of protein using the Bradford protein assay and loading buffer for electrophoresis was added to the rest and boiled for 5 min maintaining the samples at −20° C. until their use. The concentration of proteins was determined through the Bradford method using the Bio-Rad Bradford Protein Assay Reagent (BioRad).\nProtein analysis by Western Blot. The protein extracts were analysed using SDS-PAGE in gels with 8% or 10% acrylamide and 1.5 mm thick. 30 µg of protein were loaded and transferred to a PVDF (Millipore) membrane for 1.5 hours at 100 V. Blockage was performed using 5% of skimmed milk in TBS-T for 1 hour at room temperature. Immunodetection was performed by incubating the primary antibody all night at 4° C. After three 10-minute washes at room temperature using TBS-T, they were incubated with their corresponding secondary antibody conjugated to HRP. After the three 10-minute washes at room temperature using TBS-T, the membranes were developed using ECL plus (Pierce) and processed using a FUJI LAS 3000 (Fujifilm) unit. The antibodies used were: anti-pAMPKαThr172, anti-AMPKβ1/β2, anti-ACC and anti-pACCser79 from the company Cell Signaling Technology (Danvers, Mass., USA) diluted 1:1000, and the HRP goat anti-rabbit secondary antibody from the company Santa Cruz Technology at a dilution of 1:5000 or 1:10000. The detection of bands with the anti-pAMPKαThr172 and anti-pACCser79 antibodies (AMPK substrate) with respect to their respective loading controls (anti-AMPKβ1/β2 and anti-ACC) was taken as an indicative of AMPK activation.",
  "key": {"[1]": {"settings": "concentrations between 12.5 and 50 μM, FIG. 1"}, "[2]": {"settings": "concentrations between 12.5 and 100 μM, FIG. 2"}},
  "data": [
    {"compound": "O=C(O)c1c(-c2ccc(-c3ccccc3O)cc2)c2ccccc2n1Cc1ccccc1", "note": "[compound 7, 1-benzyl-3-(2′-hydroxy-[1,1′-biphenyl]-4-yl)-1H-indole-2-carboxylic acid]", "values": [
      {"measurement": "activation of AMPK (anti-phosphoThr172 AMPK alpha, Western Blot)", "setting": "[1]", "value": "activates AMPK in a dose-dependent manner"},
      {"measurement": "phosphorylation of ACC substrate (anti-phosphoSer79ACC, Western Blot)", "setting": "[1]", "value": "increase in phosphorylation"},
      {"measurement": "endogenous levels of AMPKα pT172", "value": "increase in endogenous levels of AMPKα pT172"},
      {"measurement": "activation of the AMPK complex", "value": "capable of inducing the activation of the AMPK complex"}
    ]},
    {"compound": "O=C(O)c1[nH]c2ccccc2c1-c1ccc(-c2ccccc2O)cc1", "note": "[compound 16, 3-(2′-hydroxy-[1,1′-biphenyl]-4-yl)-1H-indole-2-carboxylic acid]", "values": [
      {"measurement": "activation of AMPK (anti-phosphoThr172 AMPK alpha, Western Blot)", "setting": "[2]", "value": "activates AMPK in a dose-dependent manner"},
      {"measurement": "phosphorylation of ACC substrate (anti-phosphoSer79ACC, Western Blot)", "setting": "[2]", "value": "increase in phosphorylation"},
      {"measurement": "endogenous levels of AMPKα pT172", "value": "increase in endogenous levels of AMPKα pT172"},
      {"measurement": "activation of the AMPK complex", "value": "capable of inducing the activation of the AMPK complex"}
    ]}
  ]
}
